Like-named read-outs stand apart in the source and are kept apart here. Where a SMILES comes first, the peptide text is derived from it.
Legend:
HLA-A2 = target: T1, HLA-A2 (Homo sapiens, UniProt P04439, D140Y/D185E/D98H/E176V/E277Q/G131W/G231S/I119V/I121R/I166T/I218V/L300P/L318F/N151K/N90K/P208A/P217A/Q86G/Q94H/R138H/R169H/T345S); assay: T2 binding assay (HLA-A2 expression on T2 cells by flow cytometry)
T1 construct: host or cells: T2 cells (human T-B lymphoblast hybrid, TAP1/TAP2 deficient)

[1] = test system: HLA-A2 positive human Ewing's sarcoma cell line which expresses XAGE-1 mRNA; assay: CTL lysis of human XAGE-1-expressing cancer cells by CTLs of immunized HLA-A2 transgenic mice; assay type: in vivo
Description: (§1) FIG. 3. CTLs induced with peptide of the invention can lyse human cancer cell expressing XAGE-1. Spleen cells derived from HLA-A2 transgenic mice immunized with a peptide of the invention (SEQ ID NO:6), as the effector cells, were stimulated in vitro for two weeks and used for a CTL assay. C1R.AAD cells pulsed or unpulsed with a peptide of SEQ ID NO:6 and a human osteosarcoma cell line expressing XAGE-1 (SB, described in Liu et al, Can Research 60:4752-4755 (2000)) were used as target cells. “E:T Ratio” stands for “Effector:Target ratio,” as indicated on the axis.
(§2) Xage-1 14 peptide (50 nmol) was emulsified in incomplete Freund's adjuvant with 50 nmol of a helper epitope derived from HCV core128-140, 5 μg of IL-12, and 5 μg of GM-CSF. Transgenic A2 Kb mice were immunized s.c. with the emulsified peptide and given a booster shot at 2 weeks. […] A week after the second stimulation, cells were harvested and measured for cytotoxic activity. The cytotoxic activity was measured by 4-hr ^51Cr-release assay. The percentage of specific ^51Cr release was determined as follows: (experimental release−spontaneous release)/(maximum release−spontaneous release)×100. Maximum release was determined from supernatants of cells that were lysed by addition of 5% Triton X-100. Spontaneous release was determined from target cells incubated without added effector cells. […]

[2] = test system: C1R.AAD cells pulsed or unpulsed with peptide; assay: CTL 51Cr-release assay, spleen cells of peptide-immunized HLA-A2 transgenic mice against peptide-pulsed or unpulsed targets; assay type: in vivo; settings: spleen cells from immunized HLA-A2-transgenic mice
Description: as §1, §2

[3] = T2 binding assay, enhanced xage-1 14 peptides, read-out: Binding Affinity to HLA-A2 (FI50)
[4] = T2 cells, overnight incubation with peptide and β2-microglobulin, read-out: binding affinity to HLA-A2 (F.I.50)

## CC(C)C[C@H](NC(=O)[C@@H](N)Cc1ccc(O)cc1)C(=O)N[C@@H](Cc1ccccc1)C(=O)N1CCC[C@H]1C(=O)N[C@@H](CO)C(=O)N[C@@H](C)C(=O)N1CCC[C@H]1C(=O)N[C@@H](CO)C(=O)N1CCC[C@H]1C(=O)N[C@H](C(=O)O)C(C)C [1Y2L xage-1 14, YLFPSAPSPV] (H-YLFPSAPSPV-OH; N-terminus and C-terminus assumed)
HLA-A2; [3]
  EC50: 3040 nM

## CC(C)[C@H](NC(=O)[C@@H]1CCCN1C(=O)[C@H](CO)NC(=O)[C@@H]1CCCN1C(=O)[C@H](C)NC(=O)[C@H](CO)NC(=O)[C@@H]1CCCN1C(=O)[C@H](Cc1ccccc1)NC(=O)[C@@H](NC(=O)[C@@H](N)Cc1ccc(O)cc1)C(C)C)C(=O)O [1Y xage-1 14, YVFPSAPSPV] (H-YVFPSAPSPV-OH; N-terminus and C-terminus assumed)
HLA-A2; [3]
  EC50: 2360 nM

## CSCC[C@H](NC(=O)[C@H](CC(C)C)NC(=O)CN)C(=O)N1CCC[C@H]1C(=O)N[C@@H](CO)C(=O)N[C@@H](C)C(=O)N1CCC[C@H]1C(=O)N[C@@H](CO)C(=O)N1CCC[C@H]1C(=O)N[C@H](C(=O)O)C(C)C [2L3M xage-1 14, GLMPSAPSPV] (H-GLMPSAPSPV-OH; N-terminus and C-terminus assumed)
HLA-A2; T2 binding assay
  binding to HLA-A2 (in words): particularly high binding affinity to HLA-A2
HLA-A2; [3]
  EC50: 620 nM

## CC(C)C[C@H](NC(=O)CN)C(=O)N[C@@H](Cc1ccccc1)C(=O)N1CCC[C@H]1C(=O)N[C@@H](CO)C(=O)N[C@@H](C)C(=O)N1CCC[C@H]1C(=O)N[C@@H](CO)C(=O)N1CCC[C@H]1C(=O)N[C@H](C(=O)O)C(C)C [2L xage-1 14, GLFPSAPSPV] (H-GLFPSAPSPV-OH; N-terminus and C-terminus assumed)
HLA-A2; [3]
  EC50: 1860 nM

## CSCC[C@H](NC(=O)[C@@H](NC(=O)CN)C(C)C)C(=O)N1CCC[C@H]1C(=O)N[C@@H](CO)C(=O)N[C@@H](C)C(=O)N1CCC[C@H]1C(=O)N[C@@H](CO)C(=O)N1CCC[C@H]1C(=O)N[C@H](C(=O)O)C(C)C [3M xage-1 14, GVMPSAPSPV] (H-GVMPSAPSPV-OH; N-terminus and C-terminus assumed)
HLA-A2; T2 binding assay
  binding to HLA-A2 (in words): particularly high binding affinity to HLA-A2
HLA-A2; [3]
  EC50: 280 nM

## CC(C)[C@H](NC(=O)[C@@H]1CCCN1C(=O)[C@H](CO)NC(=O)[C@@H]1CCCN1C(=O)[C@H](C)NC(=O)[C@H](CO)NC(=O)[C@@H]1CCCN1C(=O)[C@H](Cc1ccccc1)NC(=O)[C@@H](NC(=O)CN)C(C)C)C(=O)O [xage-1 14, GVFPSAPSPV] (H-GVFPSAPSPV-OH; N-terminus and C-terminus assumed)
[1]; CTLs from HLA-A2 transgenic mice immunized with peptide, varying E:T ratio
  killing of human XAGE-1-expressing cancer cells by CTLs (FIG. 3): killed human RAGE-1-expressing cancer cells in a dose dependent manner
[1]; CTLs from mice immunized twice with peptide, restimulated in vitro
  lysis of human Ewing's sarcoma cells by CTLs: lysed the human Ewing's sarcoma cells
HLA-A2; T2 binding assay
  binding to HLA-A2 (in words): surprisingly stronger binding to HLA-A2 compared to other candidate peptides
HLA-A2; [4]
  EC50: 700 to 800 nM
[2]; stimulated twice in vitro, targets pulsed with xage-1 14
  specific lytic activity against peptide-pulsed targets: lysed target cells pulsed with peptide
[2]; unpulsed targets
  lytic activity against target cells not pulsed with peptide: did not lyse target cells not pulsed with peptide

## CC[C@H](C)[C@H](NC(=O)[C@H](Cc1c[nH]c2ccccc12)NC(=O)[C@@H](NC(=O)[C@H](CCC(=O)O)NC(=O)[C@@H]1CCCN1C(=O)[C@@H](NC(=O)[C@H](CCCNC(=N)N)NC(=O)[C@@H](NC(=O)[C@H](C)N)[C@@H](C)O)C(C)C)C(C)C)C(=O)N[C@@H](CC(C)C)C(=O)O [xage-1 33, ATRVPEVWIL, reference compound] (H-ATRVPEVWIL-OH)
HLA-A2; [4]
  EC50: > 50000 nM

## CSCC[C@H](NC(=O)[C@@H](NC(=O)[C@@H]1CCCN1C(=O)[C@H](CO)NC(=O)[C@H](CCCNC(=N)N)NC(=O)[C@@H]1CCCN1C(=O)[C@H](CO)NC(=O)[C@H](C)NC(=O)[C@@H](NC(=O)[C@@H](N)Cc1c[nH]cn1)[C@@H](C)O)C(C)C)C(=O)O [xage-1 57, HTASPRSPVM, reference compound] (H-HTASPRSPVM-OH)
HLA-A2; [4]
  EC50: > 50000 nM
